Measurements: patent US20070275935A1, “Estratriene Derivatives” (priority 2003, published 2007)

How the values were obtained:
HASM cells = assay: bFGF-induced HASM proliferation over 7 days on plastic or collagen-coated silastic, comparison with dexamethasone; format: cell-based, human; conditions: 1 μM, bFGF 300 pM
Protocol: We examined the effects of 4NO (1 μM) and the glucocorticoid dexamethasone (Dex, 100 nM) on the proliferation of HASM cells in response to bFGF (300 pM). Dexamethasone is a commonly used anti-inflammatory glucocorticoid. Cells were cultured on a standard plastic tissue culture plate. The test compounds were pre-incubated with HASM for 30 minutes before the addition of bFGF. The incubation continued for 7 days before cell enumeration (FIG. 5). Data are expressed as a percentage of the cell number in vehicle treated wells and are presented as the mean and standard error of the mean.
The response of HASM cells grown on a collagen extracellular matrix to the glucocorticoids and test compounds was also examined. Cells were cultured on a collagen-coated silastic base. HASM cells were pre-incubated with the test compounds for 30 minutes before the addition of bFGF (300 pM). The incubation continued for 7 days before cell enumeration (FIG. 6). Data are expressed as a percentage of the cell number in vehicle treated wells and are presented as the mean and standard error of the mean.

cyclin D1 = assay: Thrombin-mediated cyclin D1 protein expression in HASM (Western blotting); format: cell-based, human; conditions: 0.01 μM-1 μM pre-incubation; thrombin 0.3 U/ml, 8 h
Protocol: Human airway smooth muscle cells were cultured as described above in the proliferation experiments. Cells were serum-deprived for 24 h and stimulated with thrombin (0.3 U/ml) for 8h before harvest of protein for Western Blotting of cyclin D1.

[1] = system: bleomycin-induced fibrosis in C57BL6 female mice; assay: Bleomycin model of pulmonary fibrosis in mice; format: in vivo; conditions: 4NO 50 mg/kg/day i.p.
Protocol: The activity of CP-DM-2-11-7 was investigated using a bleomycin model of pulmonary fibrosis (Underwood et al. 2000). 4NO was administered daily commencing on the day of the bleomycin challenge, 2 hours before the mice received bleomycin. The 4NO (50 mg/kg/day, by intraperitoneal injection) was then administered throughout the 14 day period. The mice also received a daily injection of bromo-deoxyuridine (BrdU) by intraperitoneal injection). The other two groups of mice), control and bleomycin-treated received a daily intraperitoneal injection of the vehicle containing BrdU. The vehicle comprised 10% dimethyl sulphoxide in peanut oil. […]
Body weight was measured throughout the experiment. […] After a 5 minute stabilization period, values of resistance and compliance were recorded and the animal was killed by a lethal dose of pentabarbitone.
Half of each group of animals was then subjected to bronchoalveolar lavage (BAL) to generate BAL fluid (BALF) in which the number of infiltrating cells was counted by haemocytometry. […]
Tissue areas reported in Table 6 were determined by capturing images of the lung section at a 100 times magnification and importing those images into a powerpoint file. […]
A 36 point overlay was then applied to the captured image and the number of grid points that intersect with tissue was determined for each of the 10 selected fields. […]

COc1cc2c(cc1O)C(=NOCc1ccc([N+](=O)[O-])cc1)C[C@@H]1[C@@H]2CC[C@]2(C)[C@@H](O)CC[C@@H]12 [CP-DM-2-11-7, 2-methoxy-6-(4-nitrobenzyloxy)iminoestradiol]
effect on bFGF-induced HASM proliferation on collagen (FIG. 6) (HASM cells; collagen-coated silastic): retained its effectiveness as an anti-proliferative agent
effect on bFGF-induced HASM proliferation on plastic (FIG. 5) (HASM cells; plastic tissue culture plate): markedly reduced the increase in HASM cell number to levels below that of dexamethasone
cyclin D1 protein levels (cyclin D1): concentration-dependent reduction in the cyclin D1 protein levels
Proliferation Epithelial ([1]; BrdU positive nuclei as percentage of total nuclei, major airway, n = 6, bleomycin alone 4.646 ± 0.8564): 3.802 ± 0.9053
Parenchymal Cell Prolif. ([1]; magnification of 600×, bleomycin alone 1340 ± 287): 738 ± 185 positive cells/10^6 pixels
